# Test results reported in ChEMBL document CHEMBL1155644, “New marine cembrane-type diterpenoids from the Okinawan soft coral Clavularia koellikeri” (J Nat Prod, 2000).
# Activity calls are given as the source filed them. The calls are words filed in the database; no cut-off is given here.
# Assays:
# Type in all cases: functional, cell-based
# [1] = test system: MOLT-4; assay: Cytotoxicity against human MOLT4 cells at 0.6 uM/mL
# [2] = test system: MOLT-4; assay: Cytotoxicity against human MOLT4 cells
# [3] = test system: DLD-1; assay: Cytotoxicity against human DLD1 cells at 0.6 uM/mL
# [4] = test system: DLD-1; assay: Cytotoxicity against human DLD1 cells
Structure (SMILES),Activity [1],IC50 [2],Activity [3],IC50 [4]
C=C1C(=O)O[C@H]2/C=C(\C)C[C@H](OC(C)=O)/C=C(\C)C[C@H](OC(C)=O)/C=C(\C)C[C@H](OC(C)=O)[C@H]12,Active,0.9 µg/mL,Active,4.2 µg/mL
C=C1C(=O)O[C@H]2/C=C(\C)C[C@H](OC(C)=O)/C=C(\C)CC/C=C(\C)C[C@H](O)[C@H]12,Active,–,Active,–
